In data set [1] the test system is Rats with calcium chloride induced arrhythmias. Kind of data set: Calcium chloride induced arrhythmias in narcotised rats (prophylactic i.v. administration). The format is in vivo. The note with it: for average period of arrhythmia: control 10.9 min. The text has this:
By means of the intravenous infusion of a calcium chloride solution, […] induced in narcotised rats which, after termination of the infusion, continue for a certain period of time (modification of the method described by Malinow et al., Arch. Int. Pharmacodyn, 102, 266/1955). This arrhythmic phase is shortened by the prophylactic administration of antiarrhythmic drugs. […] The results of the experiments with calcium chloride induced arrhythmias on rats are summarized in the following Table I. The average period of arrhythmia is calculated from experiments with at least 10 animals.

Data set [2] concerns guinea pig left ventricle. Kind of data set: Refractory time of electrically stimulated guinea pig left ventricles (organ bath). As to the method:
The left ventricles of guinea pig hearts are electrically stimulated in an organ bath, the amplitude of contraction being recorded. By means of a second stimulus, the time is determined below which the heart muscle no longer reacts with a separately resolvable contraction. This time is defined as the refractory time.
The following Table II contains information concerning the maximum tested compound concentrations, as well as the average prolongation of the refractory time measured at this concentration in comparison with the initial value of, in each case, at least 6 experiments.

In another data set the test system is rabbit eye. Briefly: Local anesthetic action on the rabbit eye (corneal reflex). Type of data set: in vivo, rabbits. The conditions noted are these: for Period of Action: observation discontinued after 60 minutes. As to the method:
The corneal reflex is induced in rabbits using a horse hair which bends with a pressure of about 250 mg (modification of the method described by M. von Frey, Beitrage zur Physiologie des Schmerzsinns, Vehr. d. Kgl. Sachs, Ges. d. Wiss. zu Leipzig, Math.-phys. Kl., 46, 185/1894; Untersuchungen uber die Sinnesfunktionen der menschlichen Haut, Leipzig, 1896). After instillation of local anesthetics into the conjunctival sac of the eye, the number of impacts with the horse hair which result in closure of the eyelid is increased. At intervals of 4 minutes, in each case a maximum of 100 successive impacts are carried out and such an action is taken as being 100%. The period of investigation is at most 60 minutes. The action of the compounds according to the present invention is compared with that of tetracaine and procainamide.
The following Table VII contains the results of the experiments on the rabbit eye. There are also given, in addition to the concentrations of the test solutions which were instilled into the conjunctival sac, the actions of the compounds in % (see description of the method), as well as their period of action. In each case, the observations were discontinued after 60 minutes.

Another data set is described as follows: in vivo. The conditions noted are these: mouse, po. Here is the method:
The compounds according to the present invention are administered intragastrally to male mice (NMRI) with a body weight of from 20 to 25 g. Each dosage group consists of 4 animals. The LD50 values are determined after having observed the animals for 7 days.

The test system of data set [3] is dogs with coronary ligature. Briefly: Coronary ligature on dogs (period of sinus rhythm from ECG). The format is in vivo. An excerpt: Using narcotised dogs, after thoracotomy, a coronary artery (side branch of the R. interventr. post. or of the R. circumflexus) is ligatured (see. A. S. Harris, Circulation, 1, 1318/1950). The heart rhythm disturbances which occur as a result thereof are, on the day following the operation, recorded on the awake animals and treated with the compounds according to the present invention by intragastral and intravenous administration. Procainamide is used as a positive standard. From the ECG, the time is determined in which, after administration of the test compound, a sinus rhythm can be recognized.
The compounds of Examples 1 (Table III), 4 (Table IV) and 10 (Table V) were tested on dogs with a coronary ligature. All the compounds were, in each case, tested on at least 5 animals.

Setting [4] is: Oryctolagus cuniculus, topical, concentration 1.0 %.
Setting [5] is: Oryctolagus cuniculus, topical, concentration 0.1 %.
Where [6] appears, read: Oryctolagus cuniculus, topical, concentration 0.5 %.
[7] abbreviates: Oryctolagus cuniculus, topical, concentration 2.0 %.

Where only a bound is given, the exact number is not on record here.

What is called inhibition in vivo is the percentage by which the read-out fell short of the control. A lower inhibition in vivo goes with a weak effect. Broadly, the LD50 is the dose at which mortality reaches 50%. A high value points to a less toxic substance.

Take `COc1ccc2c(c1)-c1c(ccc(OC)c1OC)CC(Cc1ccccc1)N(C)CC2` (racemic) [Example 5, (±)-6-Benzyl-7-methyl-5,6;8,9-tetrahydro-1,2,12-trimethoxy-7H-dibenz(d,f)azonine]: the “average period of arrhythmia” value in data set [1] (5 mg/kg I.V.) came to 4.1 min. Further, the “average prolongation of the refractory time” value (“average prolongation” for short) in data set [2] (4.0 × 10^-6 g/ml in the bath) is 25 ms. This compound also displayed an inhibition in vivo at 1 % in the data set with rabbit eye (setting [4]) of 100%. The “Period of Action” value in the data set with rabbit eye (concentration 1.0 %) was over 60 min. Besides, the LD50 at 168 h in “in vivo” was about 1000 mg/kg.

As to `COc1cccc(CC2Cc3ccc(OC)c(O)c3-c3cc(OC)ccc3CCN2C)c1` (single isomer, unassigned; (-)) [Example 2, (-)-6-(3'-Methoxybenzyl)-2,12-dimethoxy-1-hydroxy-7-methyl-5,6;8,9-tetrahydro-7H-dibenz(d,f)azonine], the “average period of arrhythmia” value in data set [1] (10 mg/kg I.V.) came to 4.9 min. The “average prolongation” value in data set [2] (8.0 × 10^-6 g/ml in the bath) was 46 ms. In the data set on rabbit eye (setting [5]), this compound yielded an inhibition in vivo at 0.1 % of 78%. The same compound came in with an inhibition in vivo at 0.5 % in the data set on rabbit eye (setting [6]) of 100%. The compound further had an inhibition in vivo at 1 % with rabbit eye (setting [4]) of 100%. For the same compound, the entries for the “Period of Action” value in the data set with rabbit eye (concentration 0.1 %), with rabbit eye (concentration 0.5 %) and with rabbit eye (concentration 1.0 %) were 46 min, “about 52 Min” and over 60 min, respectively. In the data set “in vivo”, this compound registered an LD50 at 168 h of 1000 mg/kg.

Turning to `COc1ccc2c(c1)-c1c(ccc(OC)c1O)CC(Cc1ccc(F)cc1)N(C)CC2` (single isomer, unassigned; (-)) [Example 3, (-)-6-(4'-Fluorobenzyl)-2,12-dimethoxy-1-hydroxy-7-methyl-5,6;8,9-tetrahydro-7H-dibenz(d,f)azonine], the “average period of arrhythmia” value in data set [1] (10 mg/kg I.V.) was 5.4 min. In addition, the “average prolongation” value in data set [2] (1.6 × 10^-5 g/ml in the bath) worked out at 29 ms. For the same compound, in the data set on rabbit eye (setting [6]), the inhibition in vivo at 0.5 % was 100%. Also, in the data set on rabbit eye (concentration 0.5 %), the “Period of Action” value is over 60 min. For the same compound, the LD50 at 168 h in the data set “in vivo” is 600 mg/kg.

In the case of `COc1ccc2c(c1)-c1c(ccc(OC)c1O)CC(Cc1ccccc1Cl)N(C)CC2` (single isomer, unassigned; (-)) [Example 4, (-)-6-(2'-Chlorobenzyl)-2,12-dimethoxy-hydroxy-7-methyl-5,6;8,9-tetrahydro-7H-dibenz(d,f)azonine], the “average period of arrhythmia” value was 4.6 min in data set [1] (5 mg/kg I.V.) and 2.3 min in data set [1] (10 mg/kg I.V.). In addition, in data set [2] (1.6 × 10^-5 g/ml in the bath), the “average prolongation” value is 21 ms. In addition, the “average period of eurhythmia” value came out at 68 min in data set [3] (4 mg/kg i.v.), 91 min in data set [3] (40 mg/kg i.g.), 103 min in data set [3] (60 mg/kg i.g.) and 139 min in data set [3] (80 mg/kg i.g.). The compound also showed an LD50 at 168 h in “in vivo” of 1200 mg/kg.

Regarding `COc1cccc(CC2Cc3ccc(OC)c(OC)c3-c3cc(OC)ccc3CCN2C)c1` (single isomer, unassigned; (-)) [Example 6, (-)-6-(3'-Methoxybenzyl)-7-methyl-5,6;8,9-tetrahydro-1,2,12-trimethoxy-7H-dibenz(d,f)azonine], the “average period of arrhythmia” value in data set [1] (4 mg/kg I.V.) was determined as 4.6 min. The compound further displayed an inhibition in vivo at 1 % in the data set on rabbit eye (setting [4]) of 79%. The compound further came in with an inhibition in vivo at 2 % with rabbit eye (setting [7]) of 100%. For the same compound, the “Period of Action” value in the data set on rabbit eye (concentration 1.0 %) and in the data set with rabbit eye (concentration 2.0 %) was over 60 min each time. The LD50 at 168 h in the data set “in vivo” is about 300 mg/kg.

As for `COc1cccc(CC2Cc3ccc(OC)c(OC(C)=O)c3-c3cc(OC)ccc3CCN2C)c1` (single isomer, unassigned; (-)) [Example 7, (-)-1-Acetoxy-6-(3'-methoxybenzyl)-7-methyl-5,6;8,9-tetrahydro-2,12-dimethoxy-7H-dibenz(d,f)azonine], the “average period of arrhythmia” value in data set [1] (4 mg/kg I.V.) came to 4.1 min. Moreover, the “average prolongation” value in data set [2] (4.0 × 10^-6 g/ml in the bath) stood at 18 ms. Also, the inhibition in vivo at 0.5 % in the data set on rabbit eye (setting [6]) worked out at 63%. Moreover, in the data set on rabbit eye (setting [4]), the inhibition in vivo at 1 % was found to be 100%. Besides, the “Period of Action” value in the data set with rabbit eye (concentration 0.5 %) and in the data set with rabbit eye (concentration 1.0 %) was over 60 min throughout. In addition, the LD50 at 168 h in the data set “in vivo” turned out to be 900 mg/kg.

For `COc1ccc2c(c1)-c1c(ccc(OC)c1OC(C)=O)CC(Cc1ccccc1)N(C)CC2` (single isomer, unassigned; (-)) [Example 8, (-)-1-Acetoxy-6-benzyl-2,12-dimethoxy-7-methyl-5,6;8,9-tetrahydro-7H-dibenz(d,f)azonine], in data set [1] (4 mg/kg I.V.), the “average period of arrhythmia” value came out at 5.7 min. In addition, the “average prolongation” value in data set [2] (4.0 × 10^-6 g/ml in the bath) stood at 21 ms. Further, the inhibition in vivo at 0.5 % in the data set with rabbit eye (setting [6]) was 74%. The compound also displayed an inhibition in vivo at 2 % in the data set with rabbit eye (setting [7]) of 100%. For the same compound, the “Period of Action” value in the data set on rabbit eye (concentration 0.5 %) and in the data set with rabbit eye (concentration 2.0 %) was over 60 min throughout. Moreover, the 50% lethal dose (LD50) at 168 h in the data set “in vivo” was found to be 1200 mg/kg.

For the compound `COc1ccc2c(c1)-c1c(ccc(OC)c1O)CC(Cc1c(Cl)cccc1Cl)N(C)CC2` (single isomer, unassigned; (-)) [Example 11, (-)-6-(2',6'-Dichlorobenzyl)-2,12-dimethoxy-7-methyl-1-hydroxy-5,6;8,9-tetrahydro-7H-dibenz(d,f)azonine], in data set [1] (8 mg/kg I.V.), the “average period of arrhythmia” value amounted to 7.7 min. The “antiarrhythmic action / period of arrhythmia (in words)” value in data set [1] (in comparison with control animals or procainamide) is “just as good”. Moreover, the “average prolongation” value in data set [2] (3.2 × 10^-5 g/ml in the bath) is reported as 29 ms. Moreover, the inhibition in vivo at 1 % in the data set on rabbit eye (setting [4]) was 55%. The same compound registered an inhibition in vivo at 2 % in the data set on rabbit eye (setting [7]) of 100%. For the same compound, the “Period of Action” value in the data set on rabbit eye (concentration 1.0 %) and in the data set on rabbit eye (concentration 2.0 %) was over 60 min each time. In the data set “in vivo”, the median lethal dose (LD50) at 168 h is over 1600 mg/kg.

Regarding `COc1ccc2c(c1)-c1c(ccc(OC)c1O)CC(Cc1cccc(C)c1)N(C)CC2` (single isomer, unassigned; (-)) [Example 12, (-)-6-(3'-Methylbenzyl)-2,12-dimethoxy-7-methyl-1-hydroxy-5,6;8,9-tetrahydro-7H-dibenz(d,f)azonine], the “average period of arrhythmia” value in data set [1] (5 mg/kg I.V.) stood at 6.4 min. Further, the “average prolongation” value in data set [2] (6.4 × 10^-5 g/ml in the bath) was 51 ms. This compound also had an inhibition in vivo at 0.1 % in the data set on rabbit eye (setting [5]) of 68%. Further, the inhibition in vivo at 0.25 % in the data set with rabbit eye (Oryctolagus cuniculus, topical, concentration 0.25 %) amounted to 100%. Also, the “Period of Action” value is “about 56 Min” in the data set with rabbit eye (concentration 0.1 %) and over 60 min in the data set on rabbit eye (concentration 0.25 %). In the data set “in vivo”, this compound returned an LD50 at 168 h of 1200 mg/kg.

On to `CC[C@H]1[C@@H]2C[C@H]3[C@@H]4N(C)c5ccccc5[C@]45C[C@@H]([C@H]2[C@H]5O)N3[C@@H]1O` [Ajmaline, ajmaline, reference compound], for which the “average prolongation” value in data set [2] (1.6 × 10^-5 g/ml in the bath) is on record as 16 ms.

Take `COc1ccc2c(c1)-c1c(ccc(OC)c1O)CC(Cc1ccccc1)NCC2` (stereo not drawn) [Example 9, 6-Benzyl-2,12-dimethoxy-1-hydroxy-5,6;8,9-tetrahydro-7H-dibenz(d,f)azonine]: the “average period of arrhythmia” value in data set [1] (5 mg/kg I.V.) amounted to 6.8 min. Further, the “average prolongation” value in data set [2] (1.6 × 10^-5 g/ml in the bath) is 27 ms.

For `COc1ccc(CCN(C)CCCC(C#N)(c2ccc(OC)c(OC)c2)C(C)C)cc1OC` (stereo not drawn) [Verapamil, verapamil, reference compound], the “average prolongation” value in data set [2] (1.6 × 10^-5 g/ml in the bath) is listed as 16 ms.

Regarding `O=C1NC(=O)C(c2ccccc2)(c2ccccc2)N1` [phenytoin, reference compound], in data set [1] (20 mg/kg I.V.), the “average period of arrhythmia” value is 16.5 min. Also, the “average prolongation” value in data set [2] (1.6 × 10^-5 g/ml in the bath) is on record as -6 ms.

Consider `CCCCNc1ccc(C(=O)OCCN(C)C)cc1` [tetracaine, reference compound], for which, in the data set with rabbit eye (setting [5]), the inhibition in vivo at 0.1 % amounted to 100%. The “Period of Action” value in the data set on rabbit eye (concentration 0.1 %) was “about 44 Min”. Moreover, in the data set with rabbit eye (concentration not given there), the “duration of maximum activity strength” value stood at 44 min and the maximum activity strength is on record as 100%.

The values are drawn from patent US4415495A, “5,6;8,9-Tetrahydro-7H-dibenz(d,f)azonines” (Godecke Aktiengesellschaft, priority 1981, dated 1983).
